Laboratory results as given in patent US20260007624A1, “COMPOSITION FOR AMELIORATING OR TREATING CANCER CACHEXIA […] LACTATE AS ACTIVE INGREDIENT” (METIMEDI PHARMACEUTICALS CO., LTD., priority 2022, published 2026).
Several values for one entry are separate records, joined by “and”; a condition that tells them apart may be missing. Identical values can stand only once.

Columns and labels:
[1] = system: colon cancer cell line HCT-116; assay: Cytotoxicity assay, colon cancer cells; assay type: cell-based; settings: HCT-116, 48 hours, FIG. 2 lower panel
Procedure: 5×10^3 of normal colon fibroblast cell line CCD-18Co or colon cancer cell line HCT-116 were cultured in a 96-well plate at 37° C., 5% CO2. Incubator and observed under a microscope after 48 hours.

[2] = Tissue pharmacokinetics (lactate concentration in muscle and tumor tissue); assay type: in vivo, Balb/c nude mice; settings: HCT-116 tumor mice, 20 mg/kg S.C.
Procedure: Balb/c nude mice were obtained and 1×10^6 HCT-116 was implanted subcutaneously to grow tumors. […] Each obtained tissue was analyzed for changes in lactate concentration over time using a lactate analysis kit.

Hif-1α = assay: Western blot of Hif-1α expression in cancer cells; assay type: cell-based; settings: for Hif-1α expression: hypoxia 1% O2, FIG. 4
Procedure: Then, Hif-1α antibody was diluted in TBST and attached to the protein on the membrane, washed with TBST, and treated with secondary antibody, and the band results were confirmed using X-ray film or Gel doc equipment.

[3] = system: metastatic colorectal cancer refractory to standard therapy; assay: Phase II clinical trial of calcium lactate (cachexia, tumor response, survival, safety); assay type: in vivo, patients; design: key to Overall tumor response: SD means that tumor growth has stopped; PD means that the tumor has increased by 20% or more
Procedure: The clinical study was a phase II clinical trial targeting patients with metastatic colorectal cancer refractory to standard therapy.
Twenty-two patients were enrolled, and 16 completed the trial (see Table 1).
The administration method was subcutaneous injection, and the administration dose was 100 mg/day. One cycle consisted of 4 weeks of treatment with 5 days of I.P. administration subcutaneously once daily followed by 2 days of rest.
Tumor assessment was performed every 2 cycles compared to baseline.
The clinical outcomes were the primary outcome of disease control rate, and the secondary outcomes were overall survival, progression-free survival, and safety. Body weight was measured 1 month after the start of administration and expressed as the increase or decrease in body weight before and after administration. Tumor response was performed with a CT scan 2 months after the start of administration and expressed as the increase or decrease in tumor size before and after administration. SD means that tumor growth has stopped, and PD means that the tumor has increased by 20% or more.
BMI and Weight TO were measured at the screening visit, and Weight T1mo and SLD changes in the target lesion were measured 1 and 2 months after IP administration, respectively. SLD is an abbreviation for sum of longest diameters. SD and PD are abbreviations for stable disease and progressive disease, respectively.

[4] = 8 patients with weight loss including cachexia
[5] = of 16 patients who completed the trial

For `CC(O)C(=O)[O-].CC(O)C(=O)[O-].[Ca+2]` (stereo not drawn) [calcium lactate], which “effect on survival in colorectal cancer cells” value [1] is on record?
The value was “cancer cell death can be observed”.

And the “concentration of lactate in muscle tissue” value [2]?
Its value is “no change”.

And the “concentration of lactate in tumor tissues” value ([2]; 2 hours after administration)?
The value was “increases”.

And the Hif-1α expression (Hif-1α; AsPC-1 (pancreatic cancer))?
Its Hif-1α expression is “reduced”.

What about the Hif-1α expression (Hif-1α; H1975 (lung cancer)) of the same molecule?
Its Hif-1α expression is “reduced”.

What about the Hif-1α expression (Hif-1α; HCT-116 (colon cancer)) of the same molecule?
The Hif-1α expression was “reduced”.

What about the Hif-1α expression (Hif-1α; MDA-MB-231 (breast cancer)) of the same molecule?
Its Hif-1α expression is “reduced”.

What about the “expression of Hif-1α protein” value (Hif-1α; colon cancer cells, hypoxia, FIG. 3 upper panel) of the same molecule?
Its value is “reduced”.

What about the “efficacy of preventing patients from cachexia” value ([3]; 2 out of 16 patients progressed to cancerous cachexia) of the same molecule?
Its value is 87.5%.

What about the median overall survival ([3]; 8 patients with maintained or increased weight) of the same molecule?
The median overall survival was 8 months.

What about the “median increase in tumor size” value [3, 4] of the same molecule?
Its value is 17%.

What about the median overall survival [3, 4] of the same molecule?
Its median overall survival is 4.15 months.

And the “median increase in tumor size” value ([3]; 8 patients with weight maintenance or increase)?
Its value is 9.5%.

What about the disease control rate ([3]; 16 patients) of the same molecule?
Its disease control rate is 68.75%.

What about the “drug efficacy for tumor growth arrest” value ([3]; 16 patients, metastatic stage) of the same molecule?
The value was 68.8%.

What about the Overall survival ([3]; individual patient) of the same molecule?
Its Overall survival is 2.4 months and 4.4 months and 6 months and 14.9 months and 7.6 months and 2.7 months and 3.6 months and 7.9 months and 23 months and 8.1 months and 5.1 months and 6.3 months and 16.7 months and 25.8 months.

What about the “SLD change at target lesions” value ([3]; individual patient, CT scan 2 months after start, RECIST 1.1) of the same molecule?
Its value is 12.5% and 10.8% and 15.7% and 12.6% and 9.1% and 34.7% and 17.7% and 29.0% and −2.9% and 129.2% and 3.3% and 15.6% and 10.0% and 18.4% and 2.2% and 6.2%.

What about the Overall tumor response ([3]; individual patient, RECIST 1.1) of the same molecule?
The Overall tumor response was “SD (11×) and PD (PD means that the tumor has increased by 20% or more) (5×)”.

What about the Weight change ([3]; individual patient, screening to 1 month of treatment, 100 mg/day subcutaneous) of the same molecule?
Its Weight change is 1.4% (3×) and −4.6% and 1.1% and 6.0% and −1.3% and −3.6% and 0.0% and −6.7% and −3.4% and 3.4% and −4.9% and 10.6% and −0.8%.

And the “Cachexia, % of patients” value [3, 5]?
Its value is 12.5%.

And the “Cachexia, number of patients” value [3, 5]?
The value was 2.

What about the “Weight gain (maintained or increased weight), number of patients” value [3, 5] of the same molecule?
The value was 8.

And the “Weight gain, % of patients” value [3, 5]?
The value was 50.0%.

What about the “Weight loss (not corresponding to cachexia), number of patients” value [3, 5] of the same molecule?
The value was 6.

And the “Weight loss, % of patients” value [3, 5]?
Its value is 37.5%.

What about the “number of patients with stable disease” value ([3]; out of 16 patients) of the same molecule?
Its value is 11.

And the “DLT (dose limiting toxicity)” value ([3]; phase 2 clinical trials)?
The value was “Non-DLT”.
